Data as given in US7268157B2, “Substituted arylalcanoic acid derivatives as PPAR pan agonists with potent antihyperglycemic and antihyperlipidemic activity” (Shenzhen Chipscreen Biosciences, Ltd., priority 2002, dated 2007).

Key:
[1] = Body weight and abdomen fat weight in experimental obese rats; format: in vivo, rat; details: for Abdomen Fat Weight: 15-day treatment
obese rat = experiment: Blood triglyceride and cholesterol in experimental obese rats; format: in vivo; details: 13-day treatment

| SMILES | Body Weight ([1]; 4 mg/kg, 0 day) [g] | Abdomen Fat Weight ([1]; 4 mg/kg) [g] | Body Weight ([1]; 4 mg/kg, 6 days) [g] | Body Weight ([1]; 4 mg/kg, 9 days) [g] | Body Weight ([1]; 4 mg/kg, 15 days) [g] | Body Weight ([1]; 30 mg/kg, 0 day) [g] | Abdomen Fat Weight ([1]; 30 mg/kg) [g] | Body Weight ([1]; 30 mg/kg, 6 days) [g] | Body Weight ([1]; 30 mg/kg, 9 days) [g] | Body Weight ([1]; 30 mg/kg, 15 days) [g] | body weight and abdomen fat increases ([1]; after 15-day drug treatment) | Cholesterol (obese rat; 4 mg/kg) [mg/dL] | Triglyceride (obese rat; 4 mg/kg) [mg/dL] | Cholesterol (obese rat; 30 mg/kg) [mg/dL] | Triglyceride (obese rat; 30 mg/kg) [mg/dL] |
| --- | --- | --- | --- | --- | --- | --- | --- | --- | --- | --- | --- | --- | --- | --- | --- |
| O=C(c1ccc(F)cc1)c1ccccc1NC(Cc1ccc(OCCn2c3ccccc3c3ccccc32)cc1)C(=O)O (stereo not shown) [CS-038, 2-[(2-(4-fluorobenzoyl)phenyl)amino]-3-[4-(2-carbazolylethoxy)-phenyl]-propionic acid] | 591.5 ± 130.0 | 55.8 ± 16.8 | 580.8 ± 130.2 | 575.2 ± 130.6 | 569.4 ± 122.9 | 580.5 ± 134.9 | 56.6 ± 21.1 | 586.1 ± 143.2 | 586.5 ± 144.2 | 578.3 ± 176.8 | does not induce body weight and abdomen fat increases | 98.4 ± 29.4 | 150.3 ± 52.1 | 86.6 ± 37.7 | 143.2 ± 61.8 |
| CN(CCOc1ccc(CC2SC(=O)NC2=O)cc1)c1ccccn1 (stereo not shown) [Rosiglitazone, reference compound] | 594.9 ± 169.3 | 63.1 ± 31.4 | 604.5 ± 181.4 | 601.6 ± 183.9 | 596.4 ± 176.8 | – | – | – | – | – | – | 112.7 ± 25.5 | 273.3 ± 87.4 | – | – |
